Biological target: T1, AGTR2 (Homo sapiens, UniProt P50052)
T1 construct: purchased Promega (in-house HiBiT-GPCR construct library, NanoBRET)
T1 sequence (P50052 1-363): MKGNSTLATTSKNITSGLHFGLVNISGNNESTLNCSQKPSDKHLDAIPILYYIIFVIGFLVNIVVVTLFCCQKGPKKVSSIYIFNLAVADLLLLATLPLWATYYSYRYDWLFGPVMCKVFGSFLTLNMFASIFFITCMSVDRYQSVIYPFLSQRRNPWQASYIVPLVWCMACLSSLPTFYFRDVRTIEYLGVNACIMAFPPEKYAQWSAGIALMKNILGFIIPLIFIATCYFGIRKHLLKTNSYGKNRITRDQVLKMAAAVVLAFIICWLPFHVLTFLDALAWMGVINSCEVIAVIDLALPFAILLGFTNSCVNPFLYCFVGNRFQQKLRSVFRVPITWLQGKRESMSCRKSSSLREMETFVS
Assay: NanoBRET screen HiBiT-AGTR2 in HEK293
Format: binding
Description: Each tracer candidate was screened across the entire library of HiBiT-GPCR constructs using NanoBRET as the detection modality. As depicted in Figure 4A, the specificity of interactions was evaluated through decrease in BRET due to competitive displacement of a bound tracer by excess parental compound. Each tracer was analyzed for binding to each HiBiT-GPCR fusion in the absence and in the presence of competing parental compound. Briefly, HEK293 cells were transfected with HiBiT-GPCR constructs diluted into promoterless DNA to reduce expression and maximize translocation to the cell surface. Each tracer candidate was then screened at concentrations of 1 μM and 0.1 μM across cells expressing these fusions. Cells were treated for 1.5 h with tracer either alone or in the presence of 20 μM competing parental compound (i.e., control). BRET was measured upon addition of purified LgBiT and subsequent complementation with HiBiT genetically fused to a GPCR. The specificity of interactions was assessed through a decrease in BRET signal due to competitive displacement of the bound tracer. To further gauge the robustness of these interactions, the fold response over the control (i.e., BRETtracer/BRETcontrol) was calculated. We chose a 1.5-fold response, which translates to ≥7-fold signal over noise as the minimal threshold required to score an interaction as positive. […]. Below we highlight the screening results obtained for our exemplary fluorescent tracers based on Clozapine, Amitriptyline and AZD1283.
HiBiT-GPCR DNA constructs were diluted in 10 mM Tris pH 8 to a final concentration of 0.01 μg/μL, arrayed in 96-well plates and stored at −20 °C. For transfection, HEK293 cells were suspended in Opti-MEM (without phenol red) supplemented with 2% fetal bovine serum (Seradigm) and 100 units/mL penicillin–streptomycin (Gibco) at a final concentration of 220,000 cells/mL and dispensed into white 96-well plates at 90 μL/well. Subsequent transfections and screens were carried using an Agilent Bravo Automated Liquid Handling Platform. First, the 96-well HiBiT DNA arrays were diluted 25-fold in Opti-MEM (without serum or phenol red) to a final concentration of 0.0004 μg/μL and 20 μL of the diluted DNAs were transferred into new 96-well plates. Next, promoterless carrier DNA (1 μg/μL) was diluted 25-fold (0.04 μg/μL) and then dispensed into the diluted arrays at 20 μL/well. Following brief mixing, Viafect transfection reagent (Promega) diluted 16-fold into Opti-MEM was dispensed into the plates at 40 μL/well. After mixing by pipetting, plates were incubated for 10 min on the pipetting station deck. The DNA-transfection reagent complexes were then added to plates containing cells. To facilitate the screen, 10 μL of DNA-transfection reagent complexes were added in duplicates to the top 4 and bottom 4 rows, resulting in two identical 48-well arrays per plate. Plates with transfected cells were incubated for 18–20 h at 37 °C/5% CO2. A screen of each tracer across the entire library using two different concentrations requires duplicate plates of transfected cells. Depending on the number of tracers being screened, transfections can be scaled up using the same ratios. The next day, for each tracer, four 20× screening solutions in tracer dilution buffer (Promega) were prepared: two duplicates at final concentration of 20 μM and two duplicates at a final concentration of 2 μM. A competing unmodified compound was added to one of each duplicate at a final concentration of 400 μM. The four resulting solutions were diluted 4-fold in Opti-MEM without serum or phenol red to generate 5× solutions (5 µM and 0.5 µM tracer +/− 100 μM competing compound). To screen the library, a BioTek MultiFlo FX liquid dispenser was used to dispense 22.5 µL of tracer solution to the top 4 rows and 22.5 µL tracer + competing compound solution to the 4 bottom rows. Plates were briefly mixed on an orbital shaker and incubated for 1.5 h at room temperature. […]

SMILES | NanoBRET Fold Response (AGTR2, tracer 0.1μM) | NanoBRET Fold Response (AGTR2, tracer 1μM) | further results
O=C(CCOCCOCCOCCOCCNC(=O)CCc1ccc2n1[B-](F)(F)[N+]1=C(c3ccc[nH]3)C=CC1=C2)NCCCN1CCN(C2=Nc3ccccc3Oc3ccc(Cl)cc32)CC1 [Loxapine-a-2-NB590] | 1.00 | 1.01 | 
CCCn1c(=O)c2[nH]c(-c3ccc(OCC(=O)NCCNC(=O)CCOCCNC(=O)c4ccc(CNC(=O)CCc5ccc6n5[B-](F)(F)[N+]5=C(c7ccc[nH]7)C=CC5=C6)cc4)cc3)nc2n(CCC)c1=O [XAC-3-NB590] | 1.24 | 1.09 | 
CN(C)CCC=C1c2ccccc2CCc2ccc(C(=O)NCCNC(=O)CCOCCOCCOCCOCCNC(=O)CCc3ccc4n3[B-](F)(F)[N+]3=C(c5ccc[nH]5)C=CC3=C4)cc21 [Amitriptyline-a-2-NB590] |  |  | NanoBRET Fold Response (tracer at 0.1μM): 1.01; NanoBRET Fold Response (tracer at 1μM): 0.98
COc1ccccc1N1CCN(CCCCN2C(=O)c3ccc(CNC(=O)CCOCCOCCOCCOCCNC(=O)CCc4ccc5n4[B-](F)(F)[N+]4=C(c6ccc[nH]6)C=CC4=C5)cc3C2=O)CC1 [NAN-190-2-NB590] | 1.02 | 0.98 | 
O=C(CCc1ccc2n1[B-](F)(F)[N+]1=C(c3ccc[nH]3)C=CC1=C2)NCc1ccc(C(=O)NCCOCCOCCNCC(O)COc2cccc3ccccc23)cc1 (centres unmarked) [Propranolol-3-NB590] |  |  | NanoBRET Fold Response (AGTR2, 0.1μM): 0.95; NanoBRET Fold Response (AGTR2, 1μM): 0.99
COc1ccccc1N1CCN(CCCCN2C(=O)c3ccc(CNC(=O)CCOCCNC(=O)c4ccc(CNC(=O)CCc5ccc6n5[B-](F)(F)[N+]5=C(c7ccc[nH]7)C=CC5=C6)cc4)cc3C2=O)CC1 [NAN-190-3-NB590] | 0.99 | 0.90 | 
O=C(CCc1ccc2n1[B-](F)(F)[N+]1=C(c3ccc[nH]3)C=CC1=C2)NCc1ccc(C(=O)NCCOCCC(=O)N[C@@H]2CC[C@@]3(O)[C@H]4Cc5ccc(O)c6c5[C@@]3(CCN4CC3CC3)[C@H]2O6)cc1 [Naltrexone-3-NB590] | 1.23 | 0.67 | 
CCOC(=O)c1cc(C#N)c(N2CCC(C(=O)NS(=O)(=O)Cc3ccccc3/C=C/C(=O)NCCNC(=O)CCc3ccc4n3[B-](F)(F)[N+]3=C(c5ccc[nH]5)C=CC3=C4)CC2)nc1C [AZD1283-1-NB590] |  |  | NanoBRET Fold Response (AGTR2, 0.1μM): 1.13; NanoBRET Fold Response (AGTR2, 1μM): 1.17
COc1ccc2[nH]c(-c3ccc(CNC(=O)CCOCCOCCOCCOCCNC(=O)CCc4ccc5n4[B-](F)(F)[N+]4=C(c6ccc[nH]6)C=CC4=C5)cc3)c(CCNC(C)=O)c2n1 [AzomelatoninICO9-2-NB590] |  |  | NanoBRET Fold Response (0.1μM tracer): 0.88; NanoBRET Fold Response (1μM tracer): 0.95
CC(C)N(CC[C@H](c1ccccc1)c1cc(CCNC(=O)CCOCCOCCOCCOCCNC(=O)CCc2ccc3n2[B-](F)(F)[N+]2=C(c4ccc[nH]4)C=CC2=C3)ccc1O)C(C)C [Tolterodine-2-NB590] | 1.10 | 1.07 | 
CN1CCN(C2=Nc3cc(Cl)ccc3N(CC(=O)NCCOCCOCCOCCOCCNC(=O)CCc3ccc4n3[B-](F)(F)[N+]3=C(c5ccc[nH]5)C=CC3=C4)c3ccccc32)CC1 [Clozapine-c-2-NB590] |  |  | NanoBRET Fold Response (AGTR2, 0.1μM tracer): 0.98; NanoBRET Fold Response (AGTR2, 1μM tracer): 0.98
N#CN=C(NCCCOc1cccc(CN2CCCCC2)c1)NCCNC(=O)CCOCCOCCOCCOCCNC(=O)CCc1ccc2n1[B-](F)(F)[N+]1=C(c3ccc[nH]3)C=CC1=C2 [Aminopotentidine-2-NB590] | 0.98 | 1.04 | 
COc1ccc2c(n1)c(CCNC(C)=O)cn2CCNC(=O)CCc1ccc2n1[B-](F)(F)[N+]1=C(c3ccc[nH]3)C=CC1=C2 [Azamelatonin-1-NB590] |  |  | NanoBRET Fold Response (0.1μM tracer): 1.23; NanoBRET Fold Response (1μM tracer): 0.87
CN(CCC=C1c2ccccc2CCc2ccccc21)C(=O)CCOCCOCCOCCOCCNC(=O)CCc1ccc2n1[B-](F)(F)[N+]1=C(c3ccc[nH]3)C=CC1=C2 [Amitriptyline-e-2-NB590] |  |  | NanoBRET Fold Response (tracer at 1μM): 0.97
CC(C)N(CC[C@H](c1ccccc1)c1cc(CCNC(=O)c2ccc(CNC(=O)CCc3ccc4n3[B-](F)(F)[N+]3=C(c5ccc[nH]5)C=CC3=C4)cc2)ccc1O)C(C)C [Tolterodine-BZ-NB590] | 0.96 | 0.95 | 
O=C(CCc1ccc2n1[B-](F)(F)[N+]1=C(c3ccc[nH]3)C=CC1=C2)NCCOCCOCCNC(=O)OCCOCCN1CCN(C2=Nc3ccccc3Sc3ccccc32)CC1 [Quetiapine-a-2-NB590] | 1.08 | 1.05 | 
Cc1cc2c(s1)Nc1ccccc1N=C2N1CCN(CCCNC(=O)CCOCCOCCOCCOCCNC(=O)CCc2ccc3n2[B-](F)(F)[N+]2=C(c4ccc[nH]4)C=CC2=C3)CC1 [Olanzapine-a-2-NB590] | 1.12 | 0.87 | 
CN(C)CCC=C1c2ccccc2CCc2ccc(C(=O)NCCNC(=O)CCOCCOCCOCCOCCNC(=O)CCc3ccc4n3[B-](F)(F)[N+]3=C(c5ccc[nH]5)C=CC3=C4)cc21 [Amitriptyline-b-2-NB590] |  |  | NanoBRET Fold Response (tracer at 0.1μM): 0.84; NanoBRET Fold Response (tracer at 1μM, listed as amitriptyline-b-2-NB590): 0.87
O=C(CCOCCOCCOCCOCCNC(=O)CCc1ccc2n1[B-](F)(F)[N+]1=C(c3ccc[nH]3)C=CC1=C2)NCCCN1CCN(C2=Nc3cc(Cl)ccc3Nc3ccccc32)CC1 [Clozapine-a-2-NB590] |  |  | NanoBRET Fold Response (AGTR2, 0.1μM tracer): 1.02; NanoBRET Fold Response (AGTR2, 1μM tracer): 1.03
CN1CCN(C2=Nc3cc(Cl)ccc3Nc3ccc(CNC(=O)CCOCCOCCOCCOCCNC(=O)CCc4ccc5n4[B-](F)(F)[N+]4=C(c6ccc[nH]6)C=CC4=C5)cc32)CC1 [Clozapine-b-2-NB590] |  |  | NanoBRET Fold Response (AGTR2, 0.1μM tracer): 1.03; NanoBRET Fold Response (AGTR2, 1μM tracer): 0.95
Cc1nc2n(c(=O)c1CCN1CCC(c3noc4cc(F)ccc34)CC1)CCCC2OC(=O)NCCOCCOCCOCCOCCNC(=O)CCc1ccc2n1[B-](F)(F)[N+]1=C(c3ccc[nH]3)C=CC1=C2 (centres unmarked) [Risperidone-2-NB590] | 1.10 | 0.94 | 

Source: article PMC8151276, “An Integrated Approach toward NanoBRET Tracers for Analysis of GPCR Ligand Engagement” (Molecules, 2021)
